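Dose response: 5 concentrations. Exposure: 48 h. Format: 96-well plates. Endpoint: linear interpolation; highest concentration if not reached. TGI: concentration producing complete growth inhibition.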
How the values were obtained:
Assay in all cases: NCI tumour cell line growth inhibition, 48 h
NCI-H460 lung = test system: NCI-H460 lung
RPMI-8226 leukemia = test system: RPMI-8226 leukemia
U251 CNS = test system: U251 CNS
UACC-62 melanoma = test system: UACC-62 melanoma
RXF 393 renal = test system: RXF 393 renal
NCI-H522 lung = test system: NCI-H522 lung
IGROV1 ovarian = test system: IGROV1 ovarian
NCI-H23 lung = test system: NCI-H23 lung
ACHN renal = test system: ACHN renal
SR leukemia = test system: SR leukemia
CAKI-1 renal = test system: CAKI-1 renal
SF-295 CNS = test system: SF-295 CNS
UACC-257 melanoma = test system: UACC-257 melanoma
KM20L2 colon = test system: KM20L2 colon
CCRF-CEM leukemia = test system: CCRF-CEM leukemia
MOLT-4 leukemia = test system: MOLT-4 leukemia
SNB-19 CNS = test system: SNB-19 CNS
EKVX NSCLC = test system: EKVX NSCLC
OVCAR-3 ovarian = test system: OVCAR-3 ovarian
SN12C renal = test system: SN12C renal
HOP-92 NSCLC = test system: HOP-92 NSCLC
A498 renal = test system: A498 renal
SK-MEL-28 melanoma = test system: SK-MEL-28 melanoma
XF 498 CNS = test system: XF 498 CNS
SNB-75 CNS = test system: SNB-75 CNS
LXFL 529 NSCLC = test system: LXFL 529 NSCLC
OVCAR-4 ovarian = test system: OVCAR-4 ovarian
SF-539 CNS = test system: SF-539 CNS
SF-268 CNS = test system: SF-268 CNS
DMS 114 small cell lung = test system: DMS 114 small cell lung
M14 melanoma = test system: M14 melanoma
DMS 273 small cell lung = test system: DMS 273 small cell lung
HCC-2998 colon = test system: HCC-2998 colon
HT29 colon = test system: HT29 colon
DLD-1 colon = test system: DLD-1 colon
NCI-H226 lung = test system: NCI-H226 lung
SK-OV-3 ovarian = test system: SK-OV-3 ovarian
HCT-116 colon = test system: HCT-116 colon
OVCAR-8 ovarian = test system: OVCAR-8 ovarian
K-562 leukemia = test system: K-562 leukemia
SNB-78 CNS = test system: SNB-78 CNS
KM12 colon = test system: KM12 colon
LOX IMVI melanoma = test system: LOX IMVI melanoma
SK-MEL-5 melanoma = test system: SK-MEL-5 melanoma
A549 NSCLC = test system: A549 NSCLC
TK-10 renal = test system: TK-10 renal
RXF-631 renal = test system: RXF-631 renal
HL-60(TB) leukemia = test system: HL-60(TB) leukemia
OVCAR-5 ovarian = test system: OVCAR-5 ovarian
HCT-15 colon = test system: HCT-15 colon
MALME-3M melanoma = test system: MALME-3M melanoma
M19-MEL melanoma = test system: M19-MEL melanoma
UO-31 renal = test system: UO-31 renal
SW-620 colon = test system: SW-620 colon
786-0 renal = test system: 786-0 renal
SK-MEL-2 melanoma = test system: SK-MEL-2 melanoma
HOP-62 NSCLC = test system: HOP-62 NSCLC
COLO 205 colon = test system: COLO 205 colon
HOP-18 NSCLC = test system: HOP-18 NSCLC

Measured: TGI

NC(=O)COc1ccccc1
not listed: HOP-18 NSCLC
> 100 µM: all other assays above

CC(=O)O[C@H]1C(N(C)C(=O)c2ccccc2)CC[C@]2(C)C3CC[C@@]4(C)C(CC(O)[C@@H]4C(C)N(C)C)[C@@H]3CCC12 (some centres undefined)
not listed: RXF 393 renal | RXF-631 renal | UO-31 renal
> 100 µM: all other assays above

— PubChem BioAssay (NCI)
